Measured values as given in paper PMC8416020 (eLife, 2021).
Entries after “also recorded” stand apart in the source; their conditions may differ. Where no end group is shown, it is not given here.

Experiments:
[1] = test system: GHSR labeled with 7H4MC-ethylglycine at F272^6.44; assay: Hydration parameter H from 7H4MC fluorescence emission; assay type: biochemical, human; conditions: for H parameter: 6.44
Text: (§1) We then investigated whether the fluorescence properties of 7H4MC-ethylglycine could report on the local hydration features of GHSR. To this end, we analyzed the 7H4MC emission profile for each of the positions considered. An excitation wavelength of 320 nm was systematically used to excite the neutral form of the fluorophore ([Amaro et al., 2015]). The emission spectra were deconvoluted into their separate components using the procedure initially described ([Amaro et al., 2015]). A hydration parameter H was then determined that corresponded to the sum of the contributions of the anionic and tautomer forms. This parameter is an indicator of the extent of hydration at the position considered, as the higher the H parameter the higher local hydration ([Amaro et al., 2015]). A difference in the H parameter inferred for the 7H4MC probe at the different positions of the apo GHSR was observed depending on the position considered (Figure 2—figure supplement 1, 2).
(§2) Figure 2. Local hydration of growth hormone secretagogue receptor (GHSR) as a function of ligands. […] All ligands were used at a 10 µM concentration. In all cases, the data represents the mean value ± SD of three experiments. Statistical analyses are provided in […]—figure supplement 2 and 4. Figure 2—source data 1. H parameter for GHSR and its mutants. Figure 2—figure supplement 1. Emission spectra of L-(7-hydroxycoumarin-4-yl) (7H4MC)-ethylglycine incorporated into isolated growth hormone secretagogue receptor (GHSR). The spectra were recorded in the absence of ligand. The labeling positions are given in a snake-like plot of GHSR ([Shiimura et al., 2020]) (A) (red: positions deleterious to GHSR function; green: positions considered in this work), and then indicated in each panel (B–F). The excitation wavelength was set to 320 nm with an emission intensity recorded between 340 and 600 nm. The gray curve represents the experimental emission spectrum (exp). The red, blue, green, and magenta spectra represent the decomposition of the experimental spectrum into its neutral (N), complexed (C), anionic (A), and tautomeric (T) components, respectively. The orange curve (fit) corresponds to sum of the individual N, C, A, and T curves. Figure 2—figure supplement 1—source data 1. 7-H4MC emission intensity of the apo GHSR mutants. [drawing 7] Figure 2—figure supplement 2. Statistical analysis of the data in Figure 2. […] Data is from Figure 2. […] Structure of the ligands used throughout this work. [drawing 9] Figure 2—figure supplement 4. Statistical analysis of the data in Figure 2. The left panels show the hydration parameter for each of the mutants in the absence or in the presence of ligands. Data are from Figure 2. The right panels show the mean difference between the apo and the ligand-loaded states for each of the mutants with multiplicity-adjusted 95% confidence intervals. [drawing 10] Figure 2—figure supplement 5. Emission spectra of L-(7-hydroxycoumarin-4-yl) (7H4MC)-ethylglycine incorporated at position 5.58 of growth hormone secretagogue receptor (GHSR) in the presence of pharmacologically distinct ligands or phosphatidylinositol-4,5-bisphosphate (PIP2). […] The excitation wavelength was set to 320 nm with an emission intensity recorded between 340 and 600 nm. The black curve represents the experimental emission spectrum (exp). The red one (fit) corresponds to sum of the individual curves after decomposition of the experimental spectrum into its neutral, complexed, anionic, and tautomeric components. Figure 2—figure supplement 5—source data 1. 7-H4MC emission intensity of the GHSR 5.58 mutant in the presence of ligands. [drawing 11] Figure 2—figure supplement 6. […]

[2] = test system: GHSR labeled with 7H4MC-ethylglycine at I134^3.43; assay: as above; assay type: biochemical, human; conditions: ligand 10 µM, POPC:POPG nanodiscs, 15°C, ex 320 nm
Text: as §1, §2

[3] = test system: GHSR labeled with 7H4MC-ethylglycine at S315^7.45; assay: as above; assay type: biochemical, human; conditions: ligand 10 µM, POPC:POPG nanodiscs, 15°C, ex 320 nm
Text: as §1, §2

[4] = test system: GHSR labeled with 7H4MC-ethylglycine at V268^6.40; assay: as above; assay type: biochemical, human; conditions: for H parameter: 6.4, ligand 10 µM, POPC:POPG nanodiscs, 15°C, ex 320 nm
Text: as §1, §2

[5] = test system: GHSR labeled with 7H4MC-ethylglycine at Y232^5.58; assay: as above; assay type: biochemical, human; conditions: for H parameter: 5.58
Text: as §1, §2

7H4MC-labeled GHSR = assay: Hydration parameter H from 7H4MC fluorescence emission, several positions together; assay type: biochemical, human; conditions: positions besides 5.58 and 6.44; saturating ligand (10 µM); vs apo
Text: as §1
Figure 2. Local hydration of growth hormone secretagogue receptor (GHSR) as a function of ligands. […] All ligands were used at a 10 µM concentration. […] The spectra were recorded in the absence of ligand. […] The excitation wavelength was set to 320 nm with an emission intensity recorded between 340 and 600 nm. […] The excitation wavelength was set to 320 nm with an emission intensity recorded between 340 and 600 nm. […]

[6] = test system: GHSR labeled with 7H4MC-ethylglycine at W215^5.41; assay: Ligand binding and activation of W215^5.41-labeled receptor; assay type: biochemical, human; conditions: basal activity markedly decreased
[7] = test system: GHSR labeled at I134^3.43, Y232^5.58, V268^6.40, F272^6.44, and S315^7.45; assay: Effect of 7H4MC-ethylglycine labeling on ghrelin binding and Gq activation; assay type: biochemical, human; conditions: positions I134^3.43, Y232^5.58, V268^6.40, F272^6.44, S315^7.45
GHSR F272^6.44 mutants = conditions: ref Valentin-Hansen et al., 2012, cited from earlier work
Text: (§3) The fluorescent probe was introduced at different positions along GHSR sequence. […] The absence of major effect on substituting F272^6.44 with 7H4MC-ethylglycine on GHSR functioning was puzzling, as mutating this residue to an ala ...

[8] = test system: GHSR F272^6.44 to alanine mutant; conditions: mutating F272^6.44 to alanine; ref Valentin-Hansen et al., 2012; cited from earlier work
Text: as §3

GHSR = conditions: ref M'Kadmi et al., 2015; cited from earlier work
[9] = ligand 10 µM, POPC:POPG nanodiscs, 15°C, ex 320 nm, replicate 1
[10] = ligand 10 µM, POPC:POPG nanodiscs, 15°C, ex 320 nm, replicate 2
[11] = ligand 10 µM, POPC:POPG nanodiscs, 15°C, ex 320 nm, replicate 3
[12] = Figure 5, 10 µM ghrelin, 2.5% PIP2-to-total lipids molar ratio, replicate 1
[13] = Figure 5, 10 µM ghrelin, 2.5% PIP2-to-total lipids molar ratio, replicate 2
[14] = Figure 5, 10 µM ghrelin, 2.5% PIP2-to-total lipids molar ratio, replicate 3
[15] = Figure 5, 10 µM ghrelin, no PIP2, replicate 1
[16] = Figure 5, 10 µM ghrelin, no PIP2, replicate 2
[17] = Figure 5, 10 µM ghrelin, no PIP2, replicate 3
[18] = saturating ligand (10 µM), vs apo

Substance “ghrelin: natural full agonist of GHSR, natural peptide agonist (GSSFLSPEHQRVQQRKESKKPPAKLQPR; not fully specified; ends and bridges not checked; UniProt Q9UBU3 24-51, looked up)” has a H parameter [1, 9] of 21.07, a H parameter [1, 10] of 20.32 and a H parameter [1, 11] of 19.11. The H parameter [1, 12] was 15.658, the H parameter [1, 13] was 15.178 and the H parameter [1, 14] was 13.342. For the same substance, the H parameter [1, 15] was 18.095, the H parameter [1, 16] was 20.174 and the H parameter [1, 17] was 21.958. The “change in the hydration parameter at position 6.44 upon binding” value [1, 18] was “local hydration at position 6.44 decreased”, the H parameter ([2]; replicate 1) was 68.24 and the H parameter ([2]; replicate 2) was 63.92. It also gave a H parameter ([2]; replicate 3) of 67.2, a H parameter ([3]; replicate 1) of 24.96 and a H parameter ([3]; replicate 2) of 23.88. It also gave a H parameter ([3]; replicate 3) of 21.19, a H parameter ([4]; replicate 1) of 61.86 and a H parameter ([4]; replicate 2) of 65.16. The H parameter ([4]; replicate 3) was 62.17, the “change in the hydration parameter at V268^6.40” value [4, 18] was “no change was observed for V268^6.40” and the H parameter [5, 9] was 48.83. The H parameter [5, 10] was 49.38, the H parameter [5, 11] was 47.22 and the H parameter [5, 12] was 60.136. The H parameter [5, 13] was 58.145, the H parameter [5, 14] was 61.325 and the H parameter [5, 15] was 49.568. The H parameter [5, 16] was 47.078, the H parameter [5, 17] was 48.124 and the “change in the hydration parameter at position 5.58 upon binding” value [5, 18] was “increase in the hydration parameter at position 5.58”. The “change in the hydration parameter at other positions” value (7H4MC-labeled GHSR) was “no relevant change in the hydration parameter”, the “ligand binding and activation of W215^5.41 mutant” value [6] was “could still bind its ligands and be activated by ghrelin” and the “effect of labeling on ghrelin binding and receptor-catalyzed Gq activation” value [7] was “essentially neutral with regard to the ability of the receptor to bind ghrelin and activate Gq; also recorded: affected neither ghrelin binding nor the receptor-catalyzed Gq activation in a relevant manner”. For the same substance, the “ghrelin-induced signaling, F272^6.44 to alanine” value (GHSR F272^6.44 mutants; mutating F272^6.44 to alanine) was “reduce ghrelin-induced signaling”, the “basal- and ghrelin-induced GHSR activity, F272^6.44 to tyrosine” value (GHSR F272^6.44 mutants; replacing phenylalanine with tyrosine, compared with alanine) was “far lower impact on both basal- and ghrelin-induced GHSR activity” and the “ghrelin binding affinity, F272^6.44 to alanine” value [8] was “without affecting ghrelin binding affinity”. For the same substance, the pharmacological class (GHSR) was “natural full agonist”.
